Assay results reported in ChEMBL document CHEMBL5096127, “Using ChEMBL to complement schistosome drug discovery” (2023).
Active and inactive are the calls of the source. The rule behind the calls is not given here. Square brackets hold non-standard residues; d marks the D form. Peptide text beside a SMILES is read from it. * marks the point of attachment. Benzoyl(4-tBu) = CC(C)(C)c1ccc(C(=O)*)cc1; Lys(Et2) = CCN(CC)CCCC[C@H](N)C(=O)O; Cbz = O=C(OCc1ccccc1)*

Columns and labels:
[1] = system: Schistosoma mansoni; test: In vitro activity on S. mansoni schistosomula at 50 uM; format: functional, organism-based; design: test concentration 50 uM, temperature 37 degree C, time incubation 72 h; settings: Puerto Rican
[2] = system: Schistosoma mansoni; test: In vitro activity on S. mansoni schistosomula at 10 uM; format: functional, organism-based; design: test concentration 10 uM, temperature 37 degree C, time incubation 72 h; settings: Puerto Rican
[3] = system: Schistosoma mansoni; format: functional, Puerto Rican; settings: temperature 37 degree C; tested at 10 uM; Worm movement inhibition (compared to DMSO control)_lower value 0 %; Worm movement inhibition (compared to DMSO control)_upper value 100 %;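 note: in vitro assay using adult worms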

SMILES	In vitro activity [1]	In vitro activity [2]	Worm movement inhibition [3] [%]
COc1ccc(-c2nc(N)ncc2-c2csc(C)n2)c(O)c1	inactive	inactive	–
Nc1nc(N)c2nc(-c3cccc(O)c3)c(-c3cccc(O)c3)nc2n1	inactive	inactive	–
O=C(c1ccc(/C=C/c2n[nH]c3ccccc23)cc1)N1CCNCC1	Active	inactive	–
CC(C)NCCCn1c(Sc2cc3c(cc2I)OCO3)nc2c(N)ncnc21	Active	inactive	–
CN(C)CCCn1cc(C2=C(c3c[nH]c4ccccc34)C(=O)NC2=O)c2ccccc21	Active	inactive	–
Fc1ccc(Cl)cc1-c1nc(Nc2ccncc2)c2nccnc2n1	inactive	inactive	–
O=C(O)c1ccc(CN2CCC(CN[C@@H]3C[C@H]3c3ccccc3)CC2)cc1	inactive	inactive	–
CN1CCC(NC(=O)c2cc(-c3c(O)cc(O)cc3Oc3ccc([N+](=O)[O-])cc3)on2)CC1	inactive	inactive	–
Oc1ccc(Nc2nc(-c3ccc(Cl)cc3)cs2)cc1	Active	inactive	–
O=C1Nc2cc(Br)ccc2/C1=C1/Nc2ccccc2/C1=N\O [6BIO]	Active	Active	95.74
C[C@H]1CCCC(=O)CCCCCc2cc(O)cc(O)c2C(=O)O1	inactive	inactive	–
CN1CCN(C(=O)CN[C@H]2C[C@@H]2c2ccc(OCc3ccccc3)cc2)CC1	Active	inactive	–
C#Cc1cccc(Nc2ncnc3cc(OC)c(OCCCCCCC(=O)NO)cc23)c1	inactive	inactive	–
Cc1cccc(-c2[nH]c(C(C)(C)C)nc2-c2ccc3c(c2)OCO3)n1	inactive	inactive	–
NC(=O)c1ccc(-c2nc(-c3ccccn3)c(-c3ccc4c(c3)OCO4)[nH]2)cc1	Active	inactive	–
COc1ccc(-c2c(-c3ccc(O)cc3O)n[nH]c2C)cc1	inactive	inactive	–
CCN1CCN(Cc2ccc(NC(=O)Nc3ccc(Oc4cc(NC)ncn4)cc3)cc2C(F)(F)F)CC1	Active	inactive	–
CC(C)(C)c1cnc(CSc2cnc(NC(=O)C3CCNCC3)s2)o1	inactive	inactive	–
CCN(CC)Cc1ccc2cc(COC(=O)Nc3ccc(C(=O)NO)cc3)ccc2c1	inactive	inactive	–
Nc1nc2c(ncn2[C@@H]2O[C@H](COP(=O)(O)OP(=O)(O)O)[C@@H](O)[C@H]2O)c(=O)[nH]1	inactive	inactive	–
CNC(=O)c1c(F)cccc1Nc1nc(Nc2cc3c(cc2OC)CCN3C(=O)CN(C)C)nc2[nH]ccc12	Active	inactive	–
Nc1nc(Nc2ccc(S(N)(=O)=O)cc2)nn1C(=O)c1c(F)cccc1F	inactive	inactive	–

SMILES	In vitro activity [1]	In vitro activity [2]	Worm movement inhibition [3] [%]
N[C@H]1C[C@@H]1c1ccc(-c2cccc(O)c2)cc1	Active	inactive	–
O=C1NCCCc2c1oc1ccc(O)cc21	inactive	inactive	–
Cc1cc(Nc2cc(N3CCN(C)CC3)nc(Sc3ccc(NC(=O)C4CC4)cc3)n2)n[nH]1	Active	inactive	–
Nc1ccc(-c2ccc(F)cc2)cc1NC(=O)C1CCOCC1	inactive	inactive	–
CNC(=O)c1ccc(Nc2nc(OC3CCCC3)c3c(-c4ccc5nc(C)oc5c4)c[nH]c3n2)c(OC)c1	inactive	inactive	–
Cc1nccc(-c2cn(Cc3ccccc3)c3cnccc23)n1	Active	inactive	–
CN[C@@H]1C[C@H]2O[C@@](C)([C@@H]1OC)n1c3ccccc3c3c4c(c5c6ccccc6n2c5c31)C(=O)NC4	Active	Active	–
O=C(CCCCCN1C(=O)c2cccc3cccc(c23)C1=O)NO	inactive	inactive	–
CC(=O)N1CCc2c(c(Nc3ccc(-c4cnn(C)c4)cc3F)nn2[C@H]2CCOC2)C1	inactive	inactive	–
C[C@]12CC[C@H](O)C[C@H]1CC[C@@H]1[C@@H]2CC[C@]2(C)[C@@H](C3=CC(=O)OC3)CC[C@]12O	Active	inactive	–
CCc1cc(-c2[nH]nc(C)c2-c2ccc3c(c2)OCCO3)c(O)cc1O	Active	inactive	–
CC(O)(CC(=O)O)CC(=O)O	inactive	inactive	–
CC(C)C[C@@H](C=O)NC(=O)[C@H](CC(C)C)NC(=O)[C@H](CC(C)C)NC(=O)OCc1ccccc1 (Cbz-Leu-Leu-Leu-aldehyde)	Active	inactive	–
CC(=O)Nc1ccc(C(=O)Nc2cc(-c3cccs3)ccc2N)cc1	inactive	inactive	–
O=C(NC1CCNCC1)c1n[nH]cc1NC(=O)c1c(Cl)cccc1Cl	inactive	inactive	–
CCCCc1nc2cc(/C=C/C(=O)NO)ccc2n1CCN(CC)CC	inactive	inactive	–
COc1ccc(F)c(F)c1C(=O)c1cnc(NC2CCN(S(C)(=O)=O)CC2)nc1N	inactive	inactive	–
O=C1NC(=O)/C(=C/c2ccc3nccnc3c2)S1	Active	inactive	–
O=C(/C=C/c1ccc2c(ccn2S(=O)(=O)c2ccccc2)c1)NO	Active	inactive	–
COc1ncc(-c2ccc3nc(N)n(-c4ccccc4C(F)(F)F)c(=O)c3c2)cc1S(=O)(=O)Nc1ccc(F)cc1F	Active	inactive	–
CC(C)c1cccc(=O)c(O)c1	inactive	inactive	–
Nc1ncnc2c1ncn2[C@@H]1O[C@H](COP(=O)(O)OP(=O)(O)O)[C@@H](O)[C@H]1O	inactive	inactive	–

SMILES	In vitro activity [1]	In vitro activity [2]	Worm movement inhibition [3] [%]
O=C(/C=C/c1ccc(CN(CCO)CCc2c[nH]c3ccccc23)cc1)NO	Active	inactive	–
O=C(O)C[C@@H]1C(=O)O[C@H]2[C@@H]3OC(=O)c4cc(O)c(O)c(O)c4-c4c(cc(O)c(O)c4O)C(=O)OC[C@H]2O[C@@H](OC(=O)c2cc(O)c(O)c(O)c2)[C@@H]3OC(=O)c2cc(O)c(O)c3c2[C@H]1[C@H](O)C(=O)O3	inactive	inactive	–
CCN(CC)CCCC[C@H](NC(=O)[C@H](CC(C)C)NC(=O)[C@H](C)NC(=O)[C@H](Cc1ccccc1)NC(=O)c1ccc(C(C)(C)C)cc1)C(=O)N[C@@H](CO)C(=O)OC ({Benzoyl(4-tBu)}-FAL[Lys(Et2)]S-OMe)	inactive	inactive	–
O=C(CCCCCCNC(=O)c1cnc(N(c2ccccc2)c2ccccc2)nc1)NO	inactive	inactive	–
c1ccc(-c2n[nH]cc2-c2ccnc3ccccc23)nc1	inactive	inactive	–
O=C(NO)c1cnc(NC2(c3ccccc3)CC2)nc1	inactive	inactive	–
CCN1/C(=C/C(C)=O)Sc2ccc(O)cc21	inactive	inactive	–
Cc1nc2c(OCc3ccccc3)cccn2c1CC#N	inactive	inactive	–
Cc1cc(/N=N/c2cc(S(=O)(=O)O)c(C)cc2C)c(N)cc1O	inactive	inactive	–
CCOC(=O)NCCCC(=O)NCCc1ccccc1	inactive	inactive	–
O=C(CCCCCCC(=O)Nc1cccnc1)NO	inactive	inactive	–
CSc1cccc(Nc2ncc3cc(-c4c(Cl)cccc4Cl)c(=O)n(C)c3n2)c1	inactive	inactive	–
CC1(C)Cc2c(sc(NC(=S)NC(=O)c3ccccc3)c2C(=O)O)CO1	inactive	inactive	–
COc1ncc2cc(C(=O)Nc3cc(C(=O)NCc4cccc(Cl)c4)ccc3Cl)c(=O)[nH]c2n1	inactive	inactive	–
C[S+]([O-])c1ccc(-c2nc(-c3ccc(F)cc3)c(-c3ccncc3)[nH]2)cc1 (stereo unspecified)	inactive	inactive	–
COc1ccc2c(c1)[nH]c1c(C)nccc12	inactive	inactive	–
Cc1cccc(-c2nn3c(c2-c2ccnc4ccc(C(N)=O)cc24)CCC3)n1	inactive	inactive	–
COc1cc(Nc2ncc(F)c(Nc3ccc4c(n3)NC(=O)C(C)(C)O4)n2)cc(OC)c1OC	inactive	inactive	–
CN(C)Cc1c(C(=O)NCCOc2ccc(C(=O)NO)cc2)oc2ccccc12	Active	inactive	–
CC[C@@]1(O)C(=O)OCc2c1cc1n(c2=O)Cc2cc3ccccc3nc2-1	Active	inactive	–
O=C(O[C@H]1[C@@H]2C=CO[C@@H](O[C@@H]3O[C@H](CO)[C@@H](O)[C@H](O)[C@H]3O)[C@@H]2[C@@]2(CO)O[C@@H]12)c1ccc(O)cc1	inactive	inactive	–
